PMC6516726 (ACS Catalysis, 2018)
Read-outs that look alike come from different tables or passages of the source.

Experiments:
[1] = biological target: WT PETNR (Enterobacter cloacae, UniProt P71278); assay: Stopped-flow FMN reduction (reductive half-reaction, hydride transfer) of WT PETNR by coenzyme; details: for kobs1: 10 mM NADPH or 25 mM NADH, pH 7.0; for ΔCp^⧧ / ΔHT0^⧧ / ΔST0^⧧: fit of kobs1 (5–40 °C) to eq 1
[2] = biological target: L25A PETNR (Enterobacter cloacae, UniProt P71278, L26A); details: for kobs1 / A2 (amplitude of kobs2 out of total absorbance change) / kobs2: pH 7.0; for ΔCp^⧧ / ΔHT0^⧧ / ΔST0^⧧: fit of kobs1 (5–40 °C) to eq 1
[3] = biological target: L25I PETNR (Enterobacter cloacae, UniProt P71278, L26I); details: for kobs1 / A2 (amplitude of kobs2 out of total absorbance change) / kobs2: 10 mM NADPH or 25 mM NADH, pH 7.0; for ΔCp^⧧ / ΔHT0^⧧ / ΔST0^⧧: fit of kobs1 (5–40 °C) to eq 1
[4] = deuterated minus protiated coenzyme, T0 = 298 K
[5] = 5 °C, 10 mM NADPH or 25 mM NADH
[6] = 10 °C, 10 mM NADPH or 25 mM NADH
[7] = 15 °C, 10 mM NADPH or 25 mM NADH
[8] = 20 °C, 10 mM NADPH or 25 mM NADH
[9] = 25 °C, 10 mM NADPH or 25 mM NADH
[10] = 30 °C, 10 mM NADPH or 25 mM NADH
[11] = 35 °C, 10 mM NADPH or 25 mM NADH
[12] = 40 °C, 10 mM NADPH or 25 mM NADH
[13] = 25 °C, 50 mM potassium phosphate pH 7.0, 20 μM enzyme
[14] = 25 °C, 50 mM potassium phosphate pH 7.0, 20 μM enzyme, fast phase
[15] = 40 °C, third phase, 10 mM NADPH or 25 mM NADH

Chain of L25A PETNR (P71278 entry or part of it L26A): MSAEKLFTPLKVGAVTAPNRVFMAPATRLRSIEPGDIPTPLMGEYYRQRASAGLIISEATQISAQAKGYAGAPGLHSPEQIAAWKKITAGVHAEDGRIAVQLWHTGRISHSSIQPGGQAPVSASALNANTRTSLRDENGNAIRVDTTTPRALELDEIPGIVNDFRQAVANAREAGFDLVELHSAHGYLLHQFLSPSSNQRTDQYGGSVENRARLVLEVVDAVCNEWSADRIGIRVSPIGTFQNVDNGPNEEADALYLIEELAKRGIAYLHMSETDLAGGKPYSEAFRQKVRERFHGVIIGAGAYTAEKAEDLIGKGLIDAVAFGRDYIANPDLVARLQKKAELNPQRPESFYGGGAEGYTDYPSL
Chain of L25I PETNR (P71278 entry or part of it L26I): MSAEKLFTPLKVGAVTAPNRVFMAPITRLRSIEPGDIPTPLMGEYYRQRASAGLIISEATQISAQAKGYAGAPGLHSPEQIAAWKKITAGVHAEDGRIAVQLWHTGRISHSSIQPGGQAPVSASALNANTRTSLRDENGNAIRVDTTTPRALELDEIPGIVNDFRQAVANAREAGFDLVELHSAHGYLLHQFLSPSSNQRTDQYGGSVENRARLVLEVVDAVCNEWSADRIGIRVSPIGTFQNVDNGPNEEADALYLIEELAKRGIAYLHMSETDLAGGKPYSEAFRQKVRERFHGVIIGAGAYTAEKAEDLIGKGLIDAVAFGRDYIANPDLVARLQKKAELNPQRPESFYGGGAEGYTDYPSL
Chain of WT PETNR (P71278 entry or part of it): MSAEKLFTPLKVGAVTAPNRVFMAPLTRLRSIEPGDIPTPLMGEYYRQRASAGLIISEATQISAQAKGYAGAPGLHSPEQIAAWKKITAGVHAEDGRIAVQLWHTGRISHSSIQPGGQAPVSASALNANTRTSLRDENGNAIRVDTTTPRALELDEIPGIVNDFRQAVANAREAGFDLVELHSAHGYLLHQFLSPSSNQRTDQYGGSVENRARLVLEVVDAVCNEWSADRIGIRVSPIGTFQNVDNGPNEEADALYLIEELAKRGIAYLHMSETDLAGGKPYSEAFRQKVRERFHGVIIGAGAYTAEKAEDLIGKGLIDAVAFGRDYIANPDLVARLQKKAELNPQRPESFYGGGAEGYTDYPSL

SMILES: [2H][C@@H]1C=CN([C@@H]2O[C@H](COP(=O)(O)OP(=O)(O)OC[C@H]3O[C@@H](n4cnc5c(N)ncnc54)[C@H](O)[C@@H]3O)[C@@H](O)[C@H]2O)C=C1C(N)=O [(R)-[4-^2H]-NADH]
- kobs1 ([1]; 5 °C): 0.091 ± 0.001 s⁻¹
- kobs1 ([1]; 15 °C): 0.156 ± 0.001 s⁻¹
- kobs1 ([1]; 20 °C): 0.204 ± 0.002 s⁻¹
- kobs1 ([1]; 25 °C): 0.274 ± 0.001 s⁻¹
- kobs1 ([1]; 30 °C): 0.366 ± 0.002 s⁻¹
- kobs1 ([1]; 35 °C): 0.499 ± 0.011 s⁻¹
- kobs1 ([1]; 40 °C): 0.673 ± 0.005 s⁻¹
- ΔCp^⧧ ([1]; T0 = 298 K): 0.46 ± 0.02 kJ mol^–1 K^–1
- ΔHT0^⧧ ([1]; T0 = 298 K): 40.3 ± 0.1 kJ mol^–1
- ΔST0^⧧ ([1]; T0 = 298 K): –120.4 ± 0.5 J mol^–1 K^–1
- Isotope Effect on ΔCp^⧧ [1, 4]: 0.07 ± 0.04 kJ mol^–1 K^–1
- Isotope Effect on ΔHT0^⧧ (ΔΔHT0^⧧) [1, 4]: 4.9 ± 0.2 kJ mol^–1
- Isotope Effect on ΔST0^⧧ [1, 4]: 0.1 ± 0.7 J mol^–1 K^–1
- kobs1 [2, 5]: 0.162 ± 0.002 s⁻¹
- kobs1 [2, 6]: 0.211 ± 0.002 s⁻¹
- kobs1 [2, 7]: 0.275 ± 0.004 s⁻¹
- kobs1 [2, 8]: 0.360 ± 0.004 s⁻¹
- kobs1 [2, 9]: 0.495 ± 0.002 s⁻¹
- kobs1 [2, 10]: 0.612 ± 0.042 s⁻¹
- A2 (amplitude of kobs2 out of total absorbance change) [2, 11]: 15.60 ± 2.69%
- kobs1 [2, 11]: 0.885 ± 0.018 s⁻¹
- kobs2 [2, 11]: 0.11 ± 0.03 s⁻¹
- A2 (amplitude of kobs2 out of total absorbance change) [2, 12]: 34.60 ± 0.91%
- kobs1 [2, 12]: 1.070 ± 0.054 s⁻¹
- kobs2 [2, 12]: 0.17 ± 0.01 s⁻¹
- ΔCp^⧧ ([2]; T0 = 298 K): 0.42 ± 0.14 kJ mol^–1 K^–1
- ΔHT0^⧧ ([2]; T0 = 298 K): 40.3 ± 1.1 kJ mol^–1
- ΔST0^⧧ ([2]; T0 = 298 K): –115.7 ± 3.8 J mol^–1 K^–1
- Isotope Effect on ΔCp^⧧ [2, 4]: 0.13 ± 0.15 kJ mol^–1 K^–1
- Isotope Effect on ΔHT0^⧧ [2, 4]: 6.6 ± 1.2 kJ mol^–1
- Isotope Effect on ΔST0^⧧ [2, 4]: 6.4 ± 4.2 J mol^–1 K^–1
- kobs1 ([3]; 5 °C): 0.062 ± 0.001 s⁻¹
- kobs1 ([3]; 10 °C): 0.083 ± 0.001 s⁻¹
- kobs1 ([3]; 20 °C): 0.160 ± 0.001 s⁻¹
- kobs1 ([3]; 25 °C): 0.223 ± 0.003 s⁻¹
- kobs1 ([3]; 30 °C): 0.306 ± 0.005 s⁻¹
- kobs1 ([3]; 35 °C): 0.418 ± 0.001 s⁻¹
- kobs1 ([3]; 40 °C): 0.604 ± 0.066 s⁻¹
- ΔCp^⧧ ([3]; T0 = 298 K): 0.30 ± 0.07 kJ mol^–1 K^–1
- ΔHT0^⧧ ([3]; T0 = 298 K): 44.9 ± 0.2 kJ mol^–1
- ΔST0^⧧ ([3]; T0 = 298 K): –106.8 ± 0.8 J mol^–1 K^–1
- Isotope Effect on ΔCp^⧧ [3, 4]: –0.03 ± 0.19 kJ mol^–1 K^–1
- Isotope Effect on ΔHT0^⧧ [3, 4]: 2.3 ± 1.8 kJ mol^–1
- Isotope Effect on ΔST0^⧧ [3, 4]: –9.2 ± 6.0 J mol^–1 K^–1

SMILES: NC(=O)C1=CN([C@@H]2O[C@H](COP(=O)(O)OP(=O)(O)OC[C@H]3O[C@@H](n4cnc5c(N)ncnc54)[C@H](O)[C@@H]3O)[C@@H](O)[C@H]2O)C=CC1 [NADH]
- kobs1 ([1]; 5 °C): 0.73 ± 0.01 s⁻¹
- kobs1 ([1]; 10 °C): 0.92 ± 0.01 s⁻¹
- kobs1 ([1]; 15 °C): 1.17 ± 0.01 s⁻¹
- kobs1 ([1]; 20 °C): 1.51 ± 0.01 s⁻¹
- KS [1, 13]: 1067 ± 13 µM
- kred [1, 14]: 2.03 ± 0.01 s^–1
- kobs1 ([1]; 25 °C): 1.95 ± 0.01 s⁻¹
- kobs1 ([1]; 30 °C): 2.53 ± 0.02 s⁻¹
- kobs1 ([1]; 35 °C): 3.30 ± 0.01 s⁻¹
- kobs1 ([1]; 40 °C): 4.25 ± 0.02 s⁻¹
- ΔCp^⧧ ([1]; T0 = 298 K): 0.39 ± 0.03 kJ mol^–1 K^–1
- ΔHT0^⧧ ([1]; T0 = 298 K): 35.4 ± 0.1 kJ mol^–1
- ΔST0^⧧ ([1]; T0 = 298 K): –120.5 ± 0.5 J mol^–1 K^–1
- kobs1 [2, 5]: 1.27 ± 0.01 s⁻¹
- kobs1 [2, 6]: 1.61 ± 0.01 s⁻¹
- kobs1 [2, 7]: 2.03 ± 0.01 s⁻¹
- kobs1 [2, 8]: 2.63 ± 0.03 s⁻¹
- KS [2, 13]: 2294 ± 91 µM
- kred [2, 14]: 3.62 ± 0.04 s^–1
- A2 (amplitude of kobs2 out of total absorbance change) [2, 9]: 2.29 ± 0.92%
- kobs1 [2, 9]: 3.33 ± 0.07 s⁻¹
- kobs2 [2, 9]: 0.09 ± 0.06 s⁻¹
- A2 (amplitude of kobs2 out of total absorbance change) [2, 10]: 4.93 ± 0.85%
- kobs1 [2, 10]: 4.23 ± 0.06 s⁻¹
- kobs2 [2, 10]: 0.08 ± 0.01 s⁻¹
- A2 (amplitude of kobs2 out of total absorbance change) [2, 11]: 12.72 ± 0.74%
- kobs1 [2, 11]: 5.20 ± 0.11 s⁻¹
- kobs2 [2, 11]: 0.11 ± 0.01 s⁻¹
- A3 (amplitude of third phase) [2, 15]: 19.01 ± 3.17%
- kobs3 [2, 15]: 1.10 ± 0.0
- A2 (amplitude of kobs2 out of total absorbance change) [2, 12]: 20.40 ± 1.48%
- kobs1 [2, 12]: 6.74 ± 0.37 s⁻¹
- kobs2 [2, 12]: 0.13 ± 0.01 s⁻¹
- ΔCp^⧧ ([2]; T0 = 298 K): 0.28 ± 0.05 kJ mol^–1 K^–1
- ΔHT0^⧧ ([2]; T0 = 298 K): 33.6 ± 0.5 kJ mol^–1
- ΔST0^⧧ ([2]; T0 = 298 K): –122.1 ± 1.7 J mol^–1 K^–1
- kobs1 ([3]; 5 °C): 0.49 ± 0.01 s⁻¹
- kobs1 ([3]; 10 °C): 0.66 ± 0.01 s⁻¹
- kobs1 ([3]; 15 °C): 0.90 ± 0.01 s⁻¹
- kobs1 ([3]; 20 °C): 1.20 ± 0.01 s⁻¹
- KS [3, 13]: 306 ± 40 µM
- kred [3, 14]: 1.74 ± 0.04 s^–1
- A2 (amplitude of kobs2 out of total absorbance change) ([3]; 25 °C): 6.40 ± 2.07%
- kobs1 ([3]; 25 °C): 1.77 ± 0.06 s⁻¹
- kobs2 ([3]; 25 °C): 0.36 ± 0.10 s⁻¹
- A2 (amplitude of kobs2 out of total absorbance change) ([3]; 30 °C): 6.86 ± 1.61%
- kobs1 ([3]; 30 °C): 2.39 ± 0.06 s⁻¹
- kobs2 ([3]; 30 °C): 0.39 ± 0.09 s⁻¹
- A2 (amplitude of kobs2 out of total absorbance change) ([3]; 35 °C): 8.92 ± 1.01%
- kobs1 ([3]; 35 °C): 3.26 ± 0.07 s⁻¹
- kobs2 ([3]; 35 °C): 0.49 ± 0.07 s⁻¹
- A2 (amplitude of kobs2 out of total absorbance change) ([3]; 40 °C): 12.28 ± 1.93%
- kobs1 ([3]; 40 °C): 4.26 ± 0.13 s⁻¹
- kobs2 ([3]; 40 °C): 0.58 ± 0.05 s⁻¹
- ΔCp^⧧ ([3]; T0 = 298 K): 0.32 ± 0.18 kJ mol^–1 K^–1
- ΔHT0^⧧ ([3]; T0 = 298 K): 42.7 ± 1.7 kJ mol^–1
- ΔST0^⧧ ([3]; T0 = 298 K): –97.7 ± 6.0 J mol^–1 K^–1
